Assay results reported in patent publication US20030059878A1, “Novel purinoceptor and gene thereof” (TANABE SEIYAKU CO., LTD, priority 2001, published 2003).

Molecular target: T1, fusion protein of TG0022 protein and Giαl (^351Cys→Ile) (Homo sapiens, UniProt P63096+Q9BPV8, C351I)
T1 construct: made in house; host or cells: Sf9 (Spodoptera frugiperda) insect cells, baculovirus vector pVL1392; membrane fraction
Assay: [35S]GTPγS binding to membrane fraction containing fusion protein of TG0022 protein and Giαl (351Cys→Ile)
Type: biochemical
Details: Sf9 membrane fraction, TG0022-Giαl (351Cys→Ile) fusion; relative to control without test compound (FIG. 4)
Text: It was assumed that TG0022 protein would be a G protein-coupled receptor as is disclosed in Example 1. Then, by using a membrane fraction containing a fusion protein of TG0022 protein and G protein, the identification of ligand was done by a method of detecting a ligand-dependent binding with GTPγS (guanosine 5′-O-(3-thiotriphosphate)) (Wenzel-Seifert et al., Mol. Pharmacol., Vol. 58, pp. 954-966, 2000; Bahia et al., Biochemistry, Vol. 37, pp. 11555-11562, 1998).
The Sf9 cells were inoculated in a 10 cm plate which was coated with collagen so as to be about 70% confluency, and thereto were added Virus Solution III obtained above (100 μl) and a medium (12 ml), and the mixture was cultivated at 27° C. for 4 days. […]
The membrane fraction obtained in the above (2) (450 μl) was suspended into a reaction buffer (7.54 ml), and thereto was added GDP (10 mM, 10 μl). […] The filter was washed with a cooled reaction buffer (200 μl) three times, and the amount of [^35S]GTPγS (amount bound to the membrane fraction) on the filter was measured by a liquid scintillator. […] GTPγS was calculated by reducting an amount of non-specifically bound [^35S] GTPγS (which was measured in the presence of 10 μM GTPγS) from the amount of [^35S]GTPγS obtained above.

T1 sequence (Q9BPV8+P63096 fused P63096:C351I): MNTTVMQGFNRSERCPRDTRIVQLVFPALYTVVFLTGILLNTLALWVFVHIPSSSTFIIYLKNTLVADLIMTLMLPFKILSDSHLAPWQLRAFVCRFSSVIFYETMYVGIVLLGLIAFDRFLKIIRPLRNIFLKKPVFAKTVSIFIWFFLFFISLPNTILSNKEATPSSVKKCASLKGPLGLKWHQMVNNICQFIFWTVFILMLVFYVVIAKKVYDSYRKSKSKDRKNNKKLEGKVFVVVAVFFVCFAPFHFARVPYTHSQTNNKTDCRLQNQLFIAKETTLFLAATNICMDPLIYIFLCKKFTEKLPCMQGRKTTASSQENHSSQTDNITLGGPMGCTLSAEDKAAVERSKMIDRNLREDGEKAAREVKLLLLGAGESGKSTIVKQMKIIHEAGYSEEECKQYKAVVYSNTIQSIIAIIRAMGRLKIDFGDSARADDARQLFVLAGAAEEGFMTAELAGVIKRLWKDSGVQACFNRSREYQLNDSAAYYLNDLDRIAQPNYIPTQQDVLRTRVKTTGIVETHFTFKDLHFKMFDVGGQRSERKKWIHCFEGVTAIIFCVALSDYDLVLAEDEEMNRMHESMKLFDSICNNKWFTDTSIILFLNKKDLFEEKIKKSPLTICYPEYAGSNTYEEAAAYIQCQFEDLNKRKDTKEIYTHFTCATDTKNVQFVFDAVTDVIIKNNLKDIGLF

Row | specific binding amount of [^35S] GTPγS | SMILES
1 | increased dependent on the concentration | Nc1ncnc2c1ncn2[C@@H]1O[C@H](COP(=O)(O)OP(=O)(O)O)[C@@H](O)[C@H]1O [ADP]
2 | increased dependent on the concentration | Nc1ncnc2c1ncn2[C@@H]1O[C@H](COP(=O)(O)OP(=O)(O)OP(=O)(O)O)[C@@H](O)[C@H]1O [ATP]
